Reference: patent US20250161244A1 (UNION HOSPITAL, TONGJI MEDICAL COLLEGE, HUAZHONG UNI. OF …, priority 2023, published 2025)

System: LX-2 cells (human HSCs)
Experiment: CCK8 experiment, proliferation of LX-2 cells
Format: cell-based
Settings: 48 h incubation, CCK-8; tested at 2.5 μM and 5 μM

CC1=C(/C=C/C(C)=C/C=C/C(C)=C/CO)C(C)(C)CCC1 [VA, vitamin A]
inhibitory effect on LX-2 cells proliferation: no inhibitory effect
